Assay results from patent US11771086B2, “Pest control composition including novel iminopyridine derivative” (priority 2012, dated 2023).
Values joined by “and” are separate entries in the source; they are usually repeats but may differ in a detail not shown here. Equal entries are not always repeated. Where two headings read alike, the source gives them in different places.

Assays:
Type in all cases: in vivo
Spodoptera litura = assay: whole plant or invertebrate; details: Spodoptera litura
Procedure: After an air drying process, third instar larvae were released thereto. […] The test was performed in duplicate.
(§1) Method for Judging Synergistic Effects

Chilo suppressalis = details: for Theoretical value by Colby's equation: Chilo suppressalis; for Mortality of single agent against Chilo suppressalis: soil irrigation, six days after release
Procedure: After standing for 3 days, second instar larvae were released thereto. […] The test was performed in duplicate.
as §1

Naranga aenescens = tested on: Naranga aenescens
Procedure: After standing for 3 days, first instar larvae were released thereto. […] The test was performed in duplicate.
as §1

Rhizoctonia solani = assay: Test Example 12 Test of control of rice sheath blight (Rhizoctonia solani); details: single agent 50 ppm; foliar spray; six days after inoculation
Nilaparvata lugens = assay: Reference Test Example 5 Pest control test of Nilaparvata lugens (foliar treatment, single agent); details: 144 h
Source text: After an air drying process, second instar larvae were released thereto. […] Test in duplicate.

Oulema oryzae = assay: Reference Test Example 12 Pest control test of Oulema oryzae (topical application); details: throughput of 0.5 μg/head; adults; forty eight hours after the treatment
Procedure: 1 μL(/head) of a drug solution of the compound of Formula (I) prepared at a predetermined concentration with acetone was topically applied and treated to the back of adults collected outdoors by a micro syringe. After the drug treatment, the adults were transferred to rice seedlings and left to stand in a thermostatic chamber at 25° C. so as to obtain 5 heads per stem. […] Test in duplicate. Mortality of adults (%)={number of dead adults/(number of survived adults+number of dead adults)}×100

Laodelphax striatellus = assay: Test Example 14 Test with Laodelphax striatellus by soil irrigation treatment (mixture with paddy herbicide); details: five days after release
Procedure: After standing for three days, second instar larvae were released thereto. […] The test was performed in duplicate.

O=C(N=c1ccccn1Cc1ccc(Cl)nc1)C(F)(F)F [Compound P212, N-[1-((6-chloropyridin-3-yl)methyl)pyridin-2(1H)-ylidene]-2,2,2-trifluoroacetamide]
mortality at 50 ppm (Spodoptera litura; foliar, 72 h, read-out: Mortality of single agent against Spodoptera litura, single agent 50 ppm, cabbage leaf disk spray, three days): 10%
Theoretical value by Colby's equation (Spodoptera litura; single agent 50 ppm (other component 0)): 10%
Theoretical value by Colby's equation (Chilo suppressalis; single agent 0.002 mg/seedling (other component 0)): 40%
Theoretical value by Colby's equation (Chilo suppressalis; single agent 0.01 mg/seedling (other component 0)): 33%
Mortality of single agent against Chilo suppressalis (Chilo suppressalis; single agent 0.002 mg/seedling): 40%
Mortality of single agent against Chilo suppressalis (Chilo suppressalis; single agent 0.01 mg/seedling): 33%
Theoretical value by Colby's equation (Naranga aenescens; Naranga aenescens, single agent 0.01 mg/seedling (other component 0)): 60%
Mortality of single agent against Naranga aenescens (Naranga aenescens; single agent 0.01 mg/seedling, soil irrigation, five days after release): 60%
Preventive value (Sheath blight test, lesion height) (Rhizoctonia solani): 14 and 9
mortality at 100 ppm (Nilaparvata lugens): ≥ 80%
mortality (Oulema oryzae): ≥ 80%
Mortality of larvae (Laodelphax striatellus) (Laodelphax striatellus; single agent 0.005 mg/seedling): 0%
Mortality of larvae (Laodelphax striatellus) (Laodelphax striatellus; single agent 0.01 mg/seedling): 100%
